Laboratory results taken from patent US6492416B1, “4,5-diaryl-3(2H)-furanone derivatives as cyclooxygenase-2 inhibitors” (Pacific Corporation, priority 1999, dated 2002).
Values after ≈ are worked out from the molar mass of the structure shown.

Legend:
male SD rat = assay: Gastric safety studies (Ulcer Index); assay type: in vivo; conditions: daily dose 30 mg/kg body weight oral for 7 days, mean of animals' scores
Experimental: Gastric safety for compounds of this invention was evaluated as follows [Otterness et al., Laboratory Models for Testing Nonsteroidal Anti-inflammatory Drugs in Nonsteroidal Anti-inflammatory Drugs; ed John Wiley & Sons pp 217-227 (1985); Wiley Interscience; New York]: A designated dose of a compound of this invention suspended in 1% methylcellulose solution was administered daily once for 7 days to a male SD rat by oral gavage. The animal was sacrificed and the inner wall of the stomach was examined visually 4 hours after the last administration (the 7th day administration). The gastric safety was assessed by the “Ulcer Index” as defined as the following scores: […]
Score 1: apparently normal stomach.
Score 2: one or more than one ulcer site of pin-point size only.
Score 3: erosions of 2 or fewer than 2, which may be accompanied by ulcers of pin-point size (an erosion is defied by any ulcerative lesion of any dimension greater than 1 mm).
Score 4: erosions more than 2, which may be accompanied by ulcers of pin-point size.
Score 5: erosions accompanied by hemorrhage.
In evaluating the gastric safety of a compound of this invention, usually 8 animals were used. The ulcer index for a compound was calculated by averaging of the ulcer index of each animal. The following Table 5 illustrates gastric safety of some COX-2 selective inhibitors of this invention.

COX-1 = target: T1, COX-1 (Mus musculus, UniProt P22437); assay: Evaluation of COX-1 activity: PGE2 formation in mouse peritoneal macrophages without aspirin and LPS treatment; assay type: cell-based
T1 sequence (P22437 27-602): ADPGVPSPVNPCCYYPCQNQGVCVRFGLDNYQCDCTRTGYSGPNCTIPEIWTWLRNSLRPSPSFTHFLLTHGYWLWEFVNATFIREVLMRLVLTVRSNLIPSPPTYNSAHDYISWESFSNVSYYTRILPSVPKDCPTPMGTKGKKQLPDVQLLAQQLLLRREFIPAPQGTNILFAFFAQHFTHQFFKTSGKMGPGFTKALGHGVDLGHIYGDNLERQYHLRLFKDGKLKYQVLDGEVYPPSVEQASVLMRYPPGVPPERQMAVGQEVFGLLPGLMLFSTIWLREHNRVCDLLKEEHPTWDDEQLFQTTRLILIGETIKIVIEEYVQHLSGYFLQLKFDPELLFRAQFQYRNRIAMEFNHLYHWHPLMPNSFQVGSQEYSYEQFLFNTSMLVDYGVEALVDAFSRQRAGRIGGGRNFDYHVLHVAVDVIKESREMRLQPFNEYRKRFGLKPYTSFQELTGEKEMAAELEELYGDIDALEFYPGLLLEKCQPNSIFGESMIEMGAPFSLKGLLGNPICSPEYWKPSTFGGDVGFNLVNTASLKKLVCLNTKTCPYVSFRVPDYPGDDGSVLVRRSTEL
Summary of the method: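 Peritoneal macrophages from C57BL/6 mice, without aspirin or LPS treatment, were plated at 1×10^6 cells/ml and fixed 2 h at 37 °C. Cells were preincubated 10 min, then given 10 μM arachidonic acid plus compound for 10 min; PGE2 was measured by RIA or EIA. IC50 came from 4–5 concentrations.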

ICR mice = assay: Acetic acid-induced writhing test; assay type: in vivo, mouse; conditions: oral gavage
Experimental: ICR mice weighing 18˜22 g were maintained in a controlled lighting environment (12 hours on/12 hours off) and fasted overnight prior analgesic testing. Mice were administered with a compound of this invention dissolved in 10:10:80 ethanol/Tween 80/saline or vehicle only by oral gavage. The administered vehicle volume was controlled to be 10 ml/kg body weight. One hour later, the animals were treated with 0.2 ml of 1.2% acetic acid by peritoneal injection. 6 minutes later, the number of abdominal constrictions was counted for a 6 minutes period. The antinociceptive activity was expressed as the reduction in the number of abdominal constrictions, compared with that of the placebo group [J. Med. Chem. 39, 4942 (1996)]. ED50 of the mouse writhing test denotes a dose level at which the number of abdominal constrictions is half that of the placebo group. Ten animals per group were used for this study.

SMILES | Ulcer Index (1˜5) (male SD rat) | IC50, μg/ml COX-1 (COX-1) [µg/mL] | ED50 (mouse writhing) (ICR mice) [mg/kg body weight]
CC1(C)OC(c2ccc(S(C)(=O)=O)cc2)=C(c2cccc(F)c2)C1=O [Example 4, 2,2-Dimethyl-4-(3-fluorophenyl)-5-{4-(methylsulfonyl)phenyl}-3(2H)-furanone] | 1.8 ± 0.7 | 5 (≈ 13.9 µM) | 8.3
CC1(C)OC(c2ccc(S(C)(=O)=O)cc2)=C(c2cc(F)cc(F)c2)C1=O [Example 11, 4-(3,5-Difluorophenyl)-2,2-dimethyl-5-{4-(methylsulfonyl)phenyl}-3(2H)-furanone] | 1.8 ± 1.0 | 20 (≈ 52.9 µM) | 
CC1(C)OC(c2ccc(S(N)(=O)=O)cc2)=C(c2cccc(Cl)c2)C1=O [Example 126] |  | 3.82 (≈ 10.1 µM) | 
CC1(C)OC(c2ccc(S(N)(=O)=O)cc2)=C(c2cccc(F)c2)C1=O [Example 129, 5-{4-(aminosulfonyl)phenyl}-2,2-dimethyl-4-(3-fluorophenyl)-3(2H)-furanone] |  | 1.02 (≈ 2.82 µM) | 12.3
CC1(C)OC(c2ccc(S(N)(=O)=O)cc2F)=C(c2ccc(F)cc2)C1=O [Example 334] |  | 3 (≈ 7.91 µM) | 
